These are literature values, as cited in US8492366B2, “Enhancedly-solubilized beta-hydroxy acids and higher potency skin peels formulated therefrom” (Societe L'Oreal S.A., priority 2002, dated 2013).

Turning to `O=C(O)c1ccccc1O` [salicylic acid, 2-hydroxybenzoic acid], the “maximum solubility in alcohol” value is reported as approximately 29%.
